The target in data set [1] is PI3-kinase p110-delta/p85-alpha (Homo sapiens, UniProt O00329).
Data set [2] concerns SU-DHL-6. The experiment in a line: Antiproliferative activity against human SU-DHL-6 cells assessed as reduction in cell viability measured after 72 hrs by MTT assay. It is filed as functional.
The nature of data set [3]: Oral bioavailability in Sprague-Dawley rat at 5 mg/kg by UHPLC-LC/MS analysis. It is filed as ADME, organism-based. To be noted: in vivo.
Data set [4] in a line: Clearance in Sprague-Dawley rat at 5 mg/kg, […] by UHPLC-LC/MS analysis. To be noted: in vivo. It is filed as ADME, organism-based.
Data set [5] concerns SU-DHL-6. Briefly: Inhibition of PI3K in human SU-DHL-6 cells assessed as reduction in S6K1 phosphorylation at Thr389 residues after 2 hrs by Western blot analysis. It is filed as cell-based. Background: Immunoblotting shows a protein as a band on a membrane.
Data set [6] has as its system SU-DHL-6. Briefly: Inhibition of PI3K in human SU-DHL-6 cells assessed as reduction in AKT phosphorylation at Ser473 residues after 2 hrs by Western blot analysis. It is filed as cell-based.
For data set [7], the target named is Phosphatidylinositol 4,5-bisphosphate 3-kinase catalytic subunit gamma isoform (Homo sapiens, UniProt P48736).
Phosphatidylinositol 4,5-bisphosphate 3-kinase catalytic subunit gamma isoform, sequence (P48736 whole entry, canonical isoform): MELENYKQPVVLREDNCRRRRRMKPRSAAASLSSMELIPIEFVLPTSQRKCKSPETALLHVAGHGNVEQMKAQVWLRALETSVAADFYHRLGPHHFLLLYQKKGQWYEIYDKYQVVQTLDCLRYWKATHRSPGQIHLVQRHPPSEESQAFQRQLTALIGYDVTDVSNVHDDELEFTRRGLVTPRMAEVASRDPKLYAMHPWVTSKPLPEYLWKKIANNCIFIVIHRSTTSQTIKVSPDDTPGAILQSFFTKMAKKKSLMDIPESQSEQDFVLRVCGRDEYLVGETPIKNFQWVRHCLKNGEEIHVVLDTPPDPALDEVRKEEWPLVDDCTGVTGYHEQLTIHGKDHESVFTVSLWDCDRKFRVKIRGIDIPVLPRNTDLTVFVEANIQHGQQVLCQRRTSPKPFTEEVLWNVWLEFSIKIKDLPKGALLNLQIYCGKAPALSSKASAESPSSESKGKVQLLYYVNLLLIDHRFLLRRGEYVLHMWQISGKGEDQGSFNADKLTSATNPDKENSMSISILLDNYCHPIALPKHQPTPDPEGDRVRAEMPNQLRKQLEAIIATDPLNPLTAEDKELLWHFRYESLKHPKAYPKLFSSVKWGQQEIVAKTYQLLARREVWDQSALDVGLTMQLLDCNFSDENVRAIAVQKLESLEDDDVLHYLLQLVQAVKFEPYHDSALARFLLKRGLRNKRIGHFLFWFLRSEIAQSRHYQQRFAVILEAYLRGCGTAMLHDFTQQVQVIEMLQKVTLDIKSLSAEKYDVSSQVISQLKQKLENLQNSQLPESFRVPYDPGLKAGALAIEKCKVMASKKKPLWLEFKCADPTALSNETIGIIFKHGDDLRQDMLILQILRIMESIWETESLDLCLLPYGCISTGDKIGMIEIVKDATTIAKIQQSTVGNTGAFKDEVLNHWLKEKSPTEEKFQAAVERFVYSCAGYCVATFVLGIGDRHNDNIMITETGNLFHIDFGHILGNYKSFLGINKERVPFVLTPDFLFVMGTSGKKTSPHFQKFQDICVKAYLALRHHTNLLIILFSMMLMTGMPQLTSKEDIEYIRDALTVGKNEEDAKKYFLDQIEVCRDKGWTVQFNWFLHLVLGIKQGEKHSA
Data set [8] is described as follows: Elimination half life in Sprague-Dawley rat at 5 mg/kg, po by UHPLC-LC/MS analysis. It is filed as ADME, organism-based. The note with it: in vivo, read-out: beta t1/2 (converted).
Data set [9] is described as follows: Elimination half life in Sprague-Dawley rat at 5 mg/kg, iv by UHPLC-LC/MS analysis. It is filed as ADME, organism-based. To be noted: in vivo, read-out: beta t1/2 (converted).
In data set [10] the target is Phosphatidylinositol 3-kinase regulatory subunit beta/Phosphatidylinositol 4,5-bisphosphate 3-kinase catalytic subunit beta isoform (Homo sapiens, UniProt P42338).
Data set [11] is filed under the species Homo sapiens.
Data set [12] can be described thus: AUC (0 to t) in Sprague-Dawley rat at 5 mg/kg, po by UHPLC-LC/MS analysis. The arrangement: dose 5 mg/kg. It is filed as ADME, organism-based. To be noted: in vivo.
For data set [13], the species on record is Homo sapiens. The source holds these as a separate data set.
The nature of data set [14]: Volume of distribution at steady state in Sprague-Dawley rat at 5 mg/kg, iv or po by UHPLC-LC/MS analysis. It is filed as ADME, organism-based. The note with it: in vivo, read-out: Vdss.
The target in data set [15] is PI3-kinase p110-alpha/p85-alpha (Homo sapiens, UniProt P42336).
PI3-kinase p110-alpha/p85-alpha, sequence (P27986 whole entry): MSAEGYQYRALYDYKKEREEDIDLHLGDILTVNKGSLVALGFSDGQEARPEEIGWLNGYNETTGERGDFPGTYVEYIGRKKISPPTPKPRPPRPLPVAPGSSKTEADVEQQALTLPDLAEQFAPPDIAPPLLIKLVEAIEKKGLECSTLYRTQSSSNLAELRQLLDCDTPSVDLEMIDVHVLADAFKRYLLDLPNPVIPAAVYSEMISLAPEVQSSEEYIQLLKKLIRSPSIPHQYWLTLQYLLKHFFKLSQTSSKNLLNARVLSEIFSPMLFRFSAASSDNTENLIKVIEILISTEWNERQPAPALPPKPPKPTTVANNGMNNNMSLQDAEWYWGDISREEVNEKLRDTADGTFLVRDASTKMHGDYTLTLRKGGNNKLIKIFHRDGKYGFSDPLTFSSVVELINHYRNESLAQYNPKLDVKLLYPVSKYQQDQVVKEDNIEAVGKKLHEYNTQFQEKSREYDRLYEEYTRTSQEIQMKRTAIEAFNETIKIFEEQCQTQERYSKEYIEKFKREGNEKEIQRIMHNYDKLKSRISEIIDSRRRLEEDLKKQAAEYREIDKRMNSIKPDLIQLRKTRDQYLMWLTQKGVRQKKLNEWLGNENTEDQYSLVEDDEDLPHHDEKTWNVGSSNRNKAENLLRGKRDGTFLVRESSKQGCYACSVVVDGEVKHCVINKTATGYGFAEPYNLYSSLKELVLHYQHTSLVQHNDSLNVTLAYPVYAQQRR
PI3-kinase p110-alpha/p85-alpha, sequence (P42336 whole entry): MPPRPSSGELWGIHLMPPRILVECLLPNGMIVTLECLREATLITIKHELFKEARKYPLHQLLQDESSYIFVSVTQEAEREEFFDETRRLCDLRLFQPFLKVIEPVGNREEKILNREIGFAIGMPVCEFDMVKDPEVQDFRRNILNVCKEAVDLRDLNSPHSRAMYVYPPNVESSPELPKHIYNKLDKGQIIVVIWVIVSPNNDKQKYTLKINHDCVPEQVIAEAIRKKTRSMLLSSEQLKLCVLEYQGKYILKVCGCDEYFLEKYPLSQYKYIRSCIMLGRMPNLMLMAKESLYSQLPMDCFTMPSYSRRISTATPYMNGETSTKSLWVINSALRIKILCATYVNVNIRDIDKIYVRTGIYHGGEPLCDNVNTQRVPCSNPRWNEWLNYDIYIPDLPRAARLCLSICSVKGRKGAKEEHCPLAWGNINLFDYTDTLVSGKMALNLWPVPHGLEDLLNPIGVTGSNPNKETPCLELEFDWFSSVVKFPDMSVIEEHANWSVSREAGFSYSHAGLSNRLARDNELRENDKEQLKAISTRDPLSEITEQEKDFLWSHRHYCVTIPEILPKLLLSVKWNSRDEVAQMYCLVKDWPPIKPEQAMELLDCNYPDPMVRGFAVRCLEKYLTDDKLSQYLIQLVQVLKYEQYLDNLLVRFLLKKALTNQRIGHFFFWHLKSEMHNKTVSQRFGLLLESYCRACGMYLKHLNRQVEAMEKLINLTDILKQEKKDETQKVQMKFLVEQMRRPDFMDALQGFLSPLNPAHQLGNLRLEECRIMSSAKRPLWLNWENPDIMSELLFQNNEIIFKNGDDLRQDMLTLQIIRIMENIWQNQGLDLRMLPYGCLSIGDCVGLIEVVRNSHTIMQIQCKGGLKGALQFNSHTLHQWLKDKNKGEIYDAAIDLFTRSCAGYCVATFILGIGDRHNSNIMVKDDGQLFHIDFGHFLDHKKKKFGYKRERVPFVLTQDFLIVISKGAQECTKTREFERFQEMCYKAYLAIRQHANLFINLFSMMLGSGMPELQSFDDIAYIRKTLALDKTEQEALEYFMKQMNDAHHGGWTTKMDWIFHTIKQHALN
For data set [16], the species on record is Homo sapiens. This is another data set of the same source.
Data set [17] in a line: AUC (0 to t) in Sprague-Dawley rat at 5 mg/kg, iv by UHPLC-LC/MS analysis. On the set-up: dose 5 mg/kg. To be noted: in vivo. It is filed as ADME, organism-based.

By IC50 is commonly meant the point on the concentration scale where inhibition reaches its midpoint. A low value points to greater potency. The term GI50 denotes the concentration at which growth is held to half of that of the control. The term bioavailability denotes the share of a dose that reaches the circulation, judged against a reference dose that is usually intravenous. Lower therefore signals poor availability. As usually defined, the CL/F is clearance divided by bioavailability, as obtained after extravascular dosing. The AUC(0-t) is exposure summed from dosing to a finite time, without extrapolation to infinity.

PI3-kinase p110-delta/p85-alpha, sequence (P27986 whole entry): as the sequence (P27986 whole entry) above
PI3-kinase p110-delta/p85-alpha, sequence (O00329 whole entry): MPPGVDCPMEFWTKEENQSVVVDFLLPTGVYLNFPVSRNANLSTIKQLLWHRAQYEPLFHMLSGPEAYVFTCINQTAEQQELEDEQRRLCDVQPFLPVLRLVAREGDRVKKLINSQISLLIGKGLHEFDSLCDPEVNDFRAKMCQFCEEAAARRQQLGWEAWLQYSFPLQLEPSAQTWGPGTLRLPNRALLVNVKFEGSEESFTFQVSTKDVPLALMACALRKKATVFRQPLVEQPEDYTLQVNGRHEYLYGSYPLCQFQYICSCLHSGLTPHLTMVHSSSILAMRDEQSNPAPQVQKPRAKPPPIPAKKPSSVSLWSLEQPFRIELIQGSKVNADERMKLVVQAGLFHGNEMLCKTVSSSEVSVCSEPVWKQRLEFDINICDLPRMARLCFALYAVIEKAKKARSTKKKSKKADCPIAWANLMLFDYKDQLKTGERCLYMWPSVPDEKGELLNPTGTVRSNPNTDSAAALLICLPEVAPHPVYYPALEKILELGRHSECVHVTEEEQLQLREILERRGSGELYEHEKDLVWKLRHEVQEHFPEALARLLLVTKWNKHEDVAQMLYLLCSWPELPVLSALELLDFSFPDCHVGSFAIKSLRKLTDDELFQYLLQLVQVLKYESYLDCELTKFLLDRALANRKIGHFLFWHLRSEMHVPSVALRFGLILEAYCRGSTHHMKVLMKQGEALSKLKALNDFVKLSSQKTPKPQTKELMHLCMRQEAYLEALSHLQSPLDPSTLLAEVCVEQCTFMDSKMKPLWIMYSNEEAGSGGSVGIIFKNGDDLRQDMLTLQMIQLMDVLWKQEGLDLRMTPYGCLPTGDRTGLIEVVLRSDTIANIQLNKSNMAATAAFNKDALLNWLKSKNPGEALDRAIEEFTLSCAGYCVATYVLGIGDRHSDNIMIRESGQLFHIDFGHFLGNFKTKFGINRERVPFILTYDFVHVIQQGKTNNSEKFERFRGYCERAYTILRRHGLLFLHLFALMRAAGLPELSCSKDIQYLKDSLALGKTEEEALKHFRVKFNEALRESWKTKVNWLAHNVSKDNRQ

Regarding `O=c1c2c(F)cccc2nc([C@@H]2CC3(CC3)CN2c2ncnc3[nH]cnc23)n1C1CCCCC1`, inhibition in data set [1] was half-maximal at 444 nM (IC50).
Consider `O=c1c2c(Cl)cccc2nc([C@@H]2CC3(CC3)CN2c2nc(F)nc3[nH]cnc23)n1-c1ccccc1`, for which the IC50 in data set [1] worked out at 38 nM. In addition, the 50% growth inhibitory concentration (GI50) in data set [2] was 2810 nM.
With `O=c1c2c(F)cccc2nc([C@@H]2CC3(CC3)CN2c2ncnc3[nH]cnc23)n1Cc1ccccc1`, inhibition in data set [1] was half-maximal at 813 nM (IC50).
In turn, `O=c1c2c(F)cccc2nc([C@@H]2CC3(CC3)CN2c2ncnc3[nH]cnc23)n1-c1ccccc1` gave a 50% inhibitory concentration (IC50) in data set [1] of 43 nM. Besides, in data set [2], the concentration for 50% growth inhibition (GI50) was 813 nM.
In the same order, the values of `N#Cc1c(N)ncnc1N1CC2(CC2)C[C@H]1c1nc2ccc(F)cc2c(=O)n1-c1ccccc1` are 9.6 nM and 945 nM.
Molecule `Cc1nc(N)nc(N2CC3(CC3)C[C@H]2c2nc3cccc(Cl)c3c(=O)n2-c2ccccc2)c1C#N` came in with an IC50 in data set [1] of 9.6 nM. The GI50 in [2] turned out to be 716 nM.
`N#Cc1c(N)ncnc1N1CC2(CC2)C[C@H]1c1nc2cccc(F)c2c(=O)n1-c1ccccc1` displayed an IC50 in [1] of 15 nM. The concentration for 50% growth inhibition (GI50) in [2] was determined as 867 nM.
`N#Cc1c(N)nc(N)nc1N1CC2(CC2)C[C@H]1c1nc2cccc(Cl)c2c(=O)n1-c1ccccc1` showed a bioavailability in data set [3] of 87.5%. The CL/F in [4] is 15 mL/min/kg. Also, the inhibition result in data set [5] and in [6] was “Dose-dependent effect” each time. For the same molecule, the IC50 in data set [7] is 4.3 nM; in data set [10] it was 174 nM; in data set [15], 221 nM; in [1] it was 1 nM. For the same molecule, the half-life in data set [8] is 14.3 h; in [9], 3 h. Further, the results for the Ratio IC50 in data set [11], in [13] and in data set [16] were 4, 221 and 174, respectively. Moreover, the area under the curve AUC(0-t) stood at 4880 ng·h/mL in data set [12] and 5580 ng·h/mL in [17]. Also, the Vd in data set [14] turned out to be 3.9 L/kg. Moreover, the concentration for 50% growth inhibition (GI50) in data set [2] turned out to be 33 nM.
In data set [1], `N#Cc1c(N)nc(N)nc1N1CC2(CC2)C[C@H]1c1nc2cccc(F)c2c(=O)n1-c1ccccc1` displayed an IC50 of 5.4 nM. For the same molecule, in data set [2], the GI50 worked out at 53 nM.
`O=c1c2c(F)cccc2nc([C@@H]2CC3(CC3)CN2c2ncnc3[nH]cnc23)n1C1CCCC1` returned an IC50 in data set [1] of 396 nM.
For the molecule `Cc1nc(N)nc(N2CC3(CC3)C[C@H]2c2nc3cccc(F)c3c(=O)n2-c2ccccc2)c1C#N`, the IC50 in data set [1] came to 9.4 nM. The concentration for 50% growth inhibition (GI50) in data set [2] came out at 1040 nM.
Take `CC[C@H](Nc1ncnc2[nH]cnc12)c1nc2cccc(F)c2c(=O)n1-c1ccccc1` [IDELALISIB]: in data set [2], the GI50 amounted to 34 nM.
Turning to `O=c1c2cc(F)ccc2nc([C@@H]2CC3(CC3)CN2c2ncnc3[nH]cnc23)n1-c1ccccc1`, the midpoint of inhibition in data set [1], the IC50, lay at 48 nM. Moreover, the GI50 in data set [2] stood at 937 nM.
For the molecule `O=c1c2c(Cl)cccc2nc([C@@H]2CC3(CC3)CN2c2ncnc3[nH]cnc23)n1-c1ccccc1`, the IC50 in [7] is 113 nM; in data set [10], 2640 nM; in [15] it was more than 5000 nM; in data set [1] it was 13 nM. The Ratio IC50 is 9 in data set [11], more than 385 in data set [13] and 203 in data set [16]. For the same molecule, the concentration for 50% growth inhibition (GI50) in [2] came out at 601 nM.
On to `O=c1c2c(Cl)cccc2nc([C@@H]2CC3(CC3)CN2c2nc(Cl)nc3[nH]cnc23)n1-c1ccccc1`, for which, in data set [1], the IC50 stood at 406 nM.
`Cc1cccc2nc([C@@H]3CC4(CC4)CN3c3ncnc4[nH]cnc34)n(-c3ccccc3)c(=O)c12` returned an IC50 in data set [1] of 16 nM. Moreover, the GI50 in data set [2] amounted to 107 nM.
In the same order, the values of `N#Cc1c(N)ncnc1N1CC2(CC2)C[C@H]1c1nc2cccc(Cl)c2c(=O)n1-c1ccccc1` are 3.7 nM and 3420 nM.
